Experimental findings from ChEMBL document CHEMBL1201862, “PubChem BioAssay data set” (2004) are described below.

Test systems include SF-268; NCI-H460; OVCAR-4; SNB-19; NCI-H226; HCC 2998; LOX IMVI; SNB-75; CAKI-1; EKVX; RXF 393; KM12; A498.
What all share (experiment): inhibition of tumour cell growth, NCI panel, 48 h

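Following 48 hours of exposure in 96-well plates, responses at five concentrations were used to interpolate endpoints linearly. GI50: concentration for 50% inhibition of growth.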 Calls of active or inactive are those of the source. Cut-off read from the data, not from the text of the source: active = GI50 up to about 1.1 µM and inactive = higher.

For `C[Si](C)(c1ccccc1)C1CC(=O)CC(=O)C1`, the GI50 in the assay with SF-268, in the assay on NCI-H460, in the assay with OVCAR-4, in the assay with SNB-19, in the assay on NCI-H226 and in the assay on HCC 2998 was > 100 µM (inactive) in each case. In addition, the GI50 in the assay with LOX IMVI was 20.8 µM (inactive); in the assay with SNB-75 it was > 100 µM (inactive); in the assay on CAKI-1, > 100 µM (inactive); in the assay on EKVX, > 100 µM (inactive); with RXF 393, 37.3 µM (inactive); with KM12, > 100 µM (inactive).

In the case of `CN(C(=O)C12C3C4C5C3C1(C(=O)O)C5C42)C(C)(C)C` (stereo unspecified), the GI50 with SF-268, in the assay with NCI-H460, in the assay on OVCAR-4, in the assay with A498, with SNB-19 and in the assay with NCI-H226 was > 100 µM (inactive) each time. The GI50 is > 100 µM (inactive) in the assay on HCC 2998; 26.1 µM (inactive) with LOX IMVI; > 100 µM (inactive) in the assay on SNB-75; > 100 µM (inactive) with CAKI-1; > 100 µM (inactive) with EKVX; > 100 µM (inactive) in the assay on KM12.

Consider `COC(=O)C(C(=O)C(=O)Nc1ccc(C(F)(F)F)cc1[N+](=O)[O-])c1csc(-n2nc(-c3ccccc3)cc2-c2ccccc2)n1` (stereo unspecified), for which the GI50 with NCI-H460, in the assay on OVCAR-4, in the assay on A498, in the assay on SNB-19, in the assay with NCI-H226 and with HCC 2998 was > 100 µM (inactive) throughout. Besides, the GI50 with LOX IMVI, in the assay on SNB-75, in the assay on CAKI-1, with RXF 393 and with KM12 was > 100 µM (inactive) in each case.

With `Nc1nc2c(ncn2CCCC(c2ccccc2)P(=O)(O)O)c(=O)[nH]1` (stereo unspecified), the GI50 with SF-268, in the assay with NCI-H460, in the assay on SNB-19, in the assay on HCC 2998, in the assay with LOX IMVI and with SNB-75 was > 100 µM (inactive) each time. For the same compound, the GI50 in the assay on CAKI-1, with EKVX and with KM12 was > 100 µM (inactive) each time.

With `CCOC(=O)[C@H]1Nc2ccc(O)cc2C2c3ccccc3CC21` (stereo partly specified), the GI50 in the assay with SF-268 was > 100 µM (inactive); in the assay with NCI-H460 it was > 100 µM (inactive); with OVCAR-4, 42.1 µM (inactive); in the assay with A498, > 100 µM (inactive); with SNB-19, > 100 µM (inactive); with NCI-H226 it was > 100 µM (inactive). For the same compound, the GI50 was 49 µM (inactive) with HCC 2998; 81.3 µM (inactive) in the assay with LOX IMVI; 36.9 µM (inactive) in the assay with SNB-75; > 100 µM (inactive) in the assay on CAKI-1; 42.3 µM (inactive) in the assay on EKVX; 17.7 µM (inactive) in the assay with RXF 393. For the same compound, the GI50 in the assay with KM12 is > 100 µM (inactive).

In the case of `Cc1ccc(S(=O)(=O)NC2(C=O)CCC(C(C)(C)C)CC2)cc1` (stereo unspecified), the GI50 was 38.9 µM (inactive) in the assay with SF-268; 32.3 µM (inactive) with NCI-H460; 27.7 µM (inactive) in the assay with OVCAR-4; 89.9 µM (inactive) in the assay on A498; 68.7 µM (inactive) with SNB-19; > 100 µM (inactive) with NCI-H226. Moreover, the GI50 with HCC 2998 is 36.9 µM (inactive); in the assay on SNB-75, 45.2 µM (inactive); in the assay on CAKI-1, > 100 µM (inactive); with EKVX it was 38.1 µM (inactive); with RXF 393 it was 27.3 µM (inactive); with KM12 it was 27 µM (inactive).

Take `Cc1cc2c(C(C)C)c(O)c(O)c(/C=N\CCO)c2c(O)c1-c1c(C)cc2c(C(C)C)c(O)c(O)c(/C=N/CCO)c2c1O`: the GI50 is 1.39 µM (inactive) in the assay with SF-268; 1.12 µM (active) in the assay on NCI-H460; 3.6 µM (inactive) in the assay on OVCAR-4; 3.36 µM (inactive) in the assay on A498; 2.05 µM (inactive) in the assay on SNB-19; 2.51 µM (inactive) with NCI-H226. In addition, the GI50 is 2.9 µM (inactive) in the assay with HCC 2998; 1.64 µM (inactive) with LOX IMVI; 2.67 µM (inactive) with SNB-75; 5.24 µM (inactive) in the assay with CAKI-1; 2.28 µM (inactive) with EKVX; 3.56 µM (inactive) with RXF 393. The GI50 in the assay with KM12 is 0.74 µM (active).

`COc1cccc(C2C(C(=O)Nc3cc(=O)n(C)c(=O)n3C)=C(C)NC(C)=C2C(=O)Nc2cc(=O)n(C)c(=O)n2C)c1O`: the GI50 with SF-268, in the assay on NCI-H460, in the assay with OVCAR-4, in the assay with A498, with SNB-19 and in the assay on NCI-H226 was > 100 µM (inactive) throughout. In addition, the GI50 in the assay on HCC 2998 was > 100 µM (inactive); in the assay with LOX IMVI, > 100 µM (inactive); in the assay with SNB-75, 23.9 µM (inactive); in the assay on CAKI-1, > 100 µM (inactive); with EKVX, > 100 µM (inactive); in the assay on RXF 393, > 100 µM (inactive). In addition, the GI50 with KM12 is > 100 µM (inactive).

Regarding `CCCC(S(=O)(=O)c1ccccc1)S(=O)(=O)c1ccccc1`, the GI50 was > 100 µM (inactive) in the assay with NCI-H460; > 100 µM (inactive) with OVCAR-4; > 100 µM (inactive) with A498; 86.7 µM (inactive) in the assay on NCI-H226; > 100 µM (inactive) with HCC 2998; > 100 µM (inactive) in the assay with SNB-75. In addition, the GI50 in the assay on CAKI-1, with EKVX, with RXF 393 and in the assay on KM12 was > 100 µM (inactive) throughout.

As for `C[n+]1c2ccccc2c(CNCC(=O)O)c2ccccc21`, the GI50 is 0.459 µM (active) with SF-268; 3.76 µM (inactive) in the assay on NCI-H460; 12.6 µM (inactive) in the assay with OVCAR-4; 2.61 µM (inactive) in the assay with A498; 10.2 µM (inactive) with SNB-19; 3.3 µM (inactive) in the assay on NCI-H226. Moreover, the GI50 with HCC 2998 is 5.92 µM (inactive); in the assay on SNB-75, 8.41 µM (inactive); in the assay on CAKI-1 it was 0.406 µM (active); with EKVX, 2.56 µM (inactive); in the assay with RXF 393 it was 2.38 µM (inactive); in the assay with KM12, 0.452 µM (active).

As for `O=[N+]([O-])c1cccc(S(=O)(=O)N/N=C/c2cc(I)cc([N+](=O)[O-])c2O)c1`, the GI50 was 30.1 µM (inactive) in the assay on SF-268; 34 µM (inactive) in the assay with NCI-H460; 27.9 µM (inactive) in the assay with OVCAR-4; > 100 µM (inactive) with A498; 23.9 µM (inactive) in the assay with SNB-19; 57 µM (inactive) with HCC 2998. In addition, the GI50 in the assay with LOX IMVI was 27.9 µM (inactive); with SNB-75 it was 22.4 µM (inactive); with CAKI-1, 20.3 µM (inactive); with EKVX it was 29 µM (inactive); in the assay on RXF 393 it was 26.4 µM (inactive); in the assay on KM12 it was 32.4 µM (inactive).

With `N#CC1=C(c2ccccc2)OC2(N)OC(c3ccccc3)=C(C#N)C12C#N` (stereo unspecified), the GI50 in the assay with SF-268 was > 100 µM (inactive); in the assay on NCI-H460, > 100 µM (inactive); with OVCAR-4, 60.3 µM (inactive); in the assay with A498, > 100 µM (inactive); with SNB-19, > 100 µM (inactive); with HCC 2998 it was > 100 µM (inactive). Besides, the GI50 in the assay on LOX IMVI was > 100 µM (inactive); in the assay on SNB-75, 43.6 µM (inactive); in the assay on CAKI-1 it was 84.1 µM (inactive); in the assay on EKVX, > 100 µM (inactive); with RXF 393, 69.3 µM (inactive); with KM12, > 100 µM (inactive).

`Cc1ccccc1C(C#N)/C(=N/NC(=O)c1cc2ccccc2cc1O)C(=O)Nc1cccc(Cl)c1` (stereo unspecified): the GI50 in the assay on SF-268 is 7.69 µM (inactive); in the assay with NCI-H460 it was 28.7 µM (inactive); with OVCAR-4 it was 21.6 µM (inactive); in the assay with A498, 41.4 µM (inactive); in the assay on SNB-19, 37.9 µM (inactive); with NCI-H226 it was 18.5 µM (inactive). Moreover, the GI50 in the assay with HCC 2998 is 28.8 µM (inactive); with SNB-75 it was 6.24 µM (inactive); in the assay with CAKI-1, 19.8 µM (inactive); in the assay with EKVX it was 28.8 µM (inactive); with KM12 it was 33.4 µM (inactive).

As for `O=c1[nH]cc(F)c(=O)n1C1OC(CO)C(O)C1O` (stereo unspecified), the GI50 in the assay with SF-268, with NCI-H460, in the assay on OVCAR-4, in the assay on SNB-19, in the assay on NCI-H226 and in the assay with HCC 2998 was > 100 µM (inactive) in each case. The GI50 in the assay on LOX IMVI, in the assay with SNB-75, in the assay on CAKI-1, with EKVX, in the assay with RXF 393 and in the assay on KM12 was > 100 µM (inactive) each time.

`CCOc1ccc2c(c1)[n+]([O-])c(C(N)=O)c(N)[n+]2[O-]`: the GI50 in the assay with SF-268, in the assay on NCI-H460, in the assay with OVCAR-4, with A498, in the assay with SNB-19 and with NCI-H226 was > 100 µM (inactive) each time. The GI50 in the assay with SNB-75, in the assay on CAKI-1, with EKVX, in the assay with RXF 393 and in the assay with KM12 was > 100 µM (inactive) each time.

On to `COc1ccc(-c2nc3c(nc2-c2ccc(OC)cc2)N(C)S(=O)(=O)N=C3N)cc1`, for which the GI50 was 24.3 µM (inactive) with SF-268; 22.8 µM (inactive) with NCI-H460; 14.1 µM (inactive) in the assay on OVCAR-4; 22.5 µM (inactive) in the assay with A498; 28.1 µM (inactive) with SNB-19; 35.6 µM (inactive) with HCC 2998. Moreover, the GI50 with LOX IMVI was 15.5 µM (inactive); in the assay with SNB-75, 24 µM (inactive); with CAKI-1, 23.2 µM (inactive); in the assay on RXF 393, 10.9 µM (inactive); with KM12 it was 22.8 µM (inactive).
